We go through five molecules from paper PMC12562640, “Investigating Amphoteric 3,4′-Biscoumarin-Based ortho-[(Dialkylamino)methyl]phenols as Dual MAO and ChE Inhibitors” (International Journal of Molecular Sciences, 2025).

In data set [1] the target is T1, human MAO-A (Homo sapiens, UniProt P21397).
T1 construct: purchased Sigma Aldrich; host or cells: insect cells infected with baculovirus (microsomes)
T1 sequence (P21397 1-527): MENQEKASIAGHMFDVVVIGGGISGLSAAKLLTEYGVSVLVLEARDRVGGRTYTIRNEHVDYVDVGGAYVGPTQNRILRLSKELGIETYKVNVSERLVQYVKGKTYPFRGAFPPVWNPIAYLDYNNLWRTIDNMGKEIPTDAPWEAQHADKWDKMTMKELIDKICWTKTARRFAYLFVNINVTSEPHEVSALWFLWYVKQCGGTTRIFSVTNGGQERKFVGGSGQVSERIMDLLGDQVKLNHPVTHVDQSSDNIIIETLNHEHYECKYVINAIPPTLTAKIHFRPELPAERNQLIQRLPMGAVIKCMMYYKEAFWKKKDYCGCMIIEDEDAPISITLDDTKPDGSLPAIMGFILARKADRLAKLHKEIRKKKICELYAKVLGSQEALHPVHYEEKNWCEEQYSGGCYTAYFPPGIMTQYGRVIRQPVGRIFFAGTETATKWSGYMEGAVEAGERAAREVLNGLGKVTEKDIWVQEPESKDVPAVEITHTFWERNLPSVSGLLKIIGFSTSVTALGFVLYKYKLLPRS
Put plainly: biochemical. Type of data set: biochemical. On the procedure:
(§1) The inhibition assays of human monoamine oxidases were conducted using a fluorescence-based method with kynuramine as a non-selective substrate for each isoform, MAO-A/B [44, 45, 46]. Recombinant human MAO-A and MAO-B (microsomes from insect cells infected with baculovirus; Sigma Aldrich, St. Louis, MO, USA) (Merk Life Science S.r.l., Milan, Italy) were used. The measurements were performed in triplicate in black round-bottom polystyrene 96-well plates (Greiner Bio-One, Kremsmünster, Austria). […] In the MAO inhibition assays, all compounds were initially screened at a concentration of 10 µM. Each of them was preincubated at 37 °C for 20 min with 50 µM kynuramine in a phosphate buffer (PBS, 0.1 M, pH 8.0), adjusted to 0.39 osmolarity with KCl. After adding recombinant human MAO-A/B (250 U/mg and 59 U/mg, respectively) and incubating for another 30 min, NaOH was added. The fluorescence was measured at excitation/emission wavelengths of 310/400 nm. […] The IC50 is reported as the mean ± SD of three independent experiments, each performed in duplicate.

The target of a further data set is T2, human huMAO-B (Homo sapiens, UniProt P27338).
T2 construct: purchased Sigma Aldrich; host or cells: insect cells infected with baculovirus (microsomes)
T2 sequence (P27338 1-520): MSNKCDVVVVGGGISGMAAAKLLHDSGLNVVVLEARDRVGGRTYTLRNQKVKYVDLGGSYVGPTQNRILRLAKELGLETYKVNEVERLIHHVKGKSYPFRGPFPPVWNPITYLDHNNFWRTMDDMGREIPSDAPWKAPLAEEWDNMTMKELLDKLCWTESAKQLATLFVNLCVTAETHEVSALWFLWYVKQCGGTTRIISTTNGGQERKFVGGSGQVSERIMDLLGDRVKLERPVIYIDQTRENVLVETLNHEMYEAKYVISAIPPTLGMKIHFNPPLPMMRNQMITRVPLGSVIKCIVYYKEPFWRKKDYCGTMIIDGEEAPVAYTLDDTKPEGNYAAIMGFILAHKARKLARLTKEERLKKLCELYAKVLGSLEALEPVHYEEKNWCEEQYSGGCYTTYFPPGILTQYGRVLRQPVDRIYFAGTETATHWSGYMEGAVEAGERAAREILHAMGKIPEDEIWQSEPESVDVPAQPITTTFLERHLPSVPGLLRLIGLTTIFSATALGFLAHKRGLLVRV
Put plainly: biochemical. The settings on record: for inhibition at 10 µM: at 10 µM concentration, mean ± SD. It is filed as biochemical. The method, then:
as §1

A further data set has as its target T3, electric eel eeAChE (Electrophorus electricus, UniProt O42275).
T3 construct: Acetylcholinesterase from electric eel and butyrylcholinesterase from equine serum (Sigma Aldrich) were employed; purchased Sigma Aldrich; host or cells: electric eel (natural source)
The experiment in a line: biochemical. The settings on record: for inhibition at 10 µM: at 10 µM concentration, mean ± SD; for IC50: mean ± SD of three independent determinations, ~10 means 50–60% inhibition at 10 µM.

A further data set concerns the target T4, horse serum eqBChE (Equus caballus, UniProt P81908).
T4 construct: Acetylcholinesterase from electric eel and butyrylcholinesterase from equine serum (Sigma Aldrich) were employed; purchased Sigma Aldrich; host or cells: equine serum
The experiment in a line: biochemical. It is filed as biochemical. The settings on record: at 10 µM concentration. On the procedure: (§2) Cholinesterase inhibition assays were carried out using the Ellman spectrophotometric method, modified for a 96-well plate format. Acetylcholinesterase from electric eel and butyrylcholinesterase from equine serum (Sigma Aldrich) were employed. The measurements were performed in triplicate using clear, flat-bottom polystyrene plates (Greiner Bio-One).

Data set [2] in a line: Kinetic solubility in aqueous buffers (RP-HPLC). Type of data set: physicochemical. The settings on record: for solubility at 2 h: PBS buffer, 25 °C, pH 7.4, aqueous buffer, kinetic from dmso stock, read-out: Solubility Exp.; for experimental solubility in PBS pH 7.4, times higher than calculated with the ESOL model: PBS pH 7.4 vs ESOL. The method, then: Water solubility and lipophilicity parameters were measured following previously reported methods. […] The mixture was then separated by centrifugation at 2500 rpm for 3 min. Immediately after filtration, 100 µL of the filtrate was mixed with an equal volume of a 1:1 (v/v) DMSO and PBS (50 mM, pH 7.4, KCl 0.15 M) or HCl (0.01 M, pH 2, KCl 0.15 M) solution to prevent precipitation from the saturated solution and subsequently analyzed by HPLC. The peak area was compared to a calibration curve of the tested compound in MeOH. The analytical parameters were set as follows. Mobile phase: MeOH/water pH 2.8 (acetic acid 0.5% v/v) at different percentages depending on the retention time of each test compound; stationary phase: Phenomenex, Kinetex 5 µ, C8, (150 × 3 mm); flux: […]; injection: 2 µL; λ 330 nm. The analyses were performed on the Agilent HPLC 1260 Infinity Series Integrated System (Agilent Technologies, Milan, Italy).

The nature of data set [3]: Lipophilicity by RP-HPLC (log k'w). It is filed as physicochemical. The settings on record: C18, extrapolated to 100% water mobile phase. The method, then: The lipophilicity of the five compounds in Table 4 was assessed by calculation and experimental approaches. As a calculated lipophilicity parameter (log Pcalc), we took from the SwissADME free website (http://www.swissadme.ch) the ‘Consensus Log Po/w’, that is, the arithmetic mean of octanol/water log Ps calculated by five methods (iLOGP, XLOGP3, WLOGP, MLOGP, and SILICOS-IT).
The lipophilicity parameters were determined by an RP-HPLC technique. In short, methanolic solutions of the examined compounds (1 mg·mL^−1) were analyzed by the Agilent 1260 infinite HPLC system (Agilent Technologies, Milan, Italy) equipped with a diode array detector (DAD), using a Phenomenex C18-column (Kinetex 5 μ, 100 Å, 150 × 3 mm) as the stationary phase and MeOH/water buffer mobile phases with different v/v composition (i.e., mobile phases containing 0.05 increments of MeOH volume fractions in 10 mM ammonium formate buffer at pH 4.5; φMeOH ranging between 0.70 and 0.20). The chromatographic measurements were carried out at 25 ± 1 °C, flow rate of 0.5 mL·min^−1, and detection at λ 330 nm. The log of capacity factors of each compound at different mobile phase compositions was calculated (log k′ = log (tR − t0)/t0, where tR represents the retention time of the solute and t0 is the column dead time). For each compound, the equation of the linear relationship between log k′ and φMeOH (R^2 > 0.991) on at least five datapoints, each from duplicate, was derived by regression analysis and the intercept at the y-axis (i.e., φMeOH = 0) calculated as the lipophilicity parameter log k′w.

The next data set addresses human huAChE (Homo sapiens, UniProt P22303). Put plainly: biochemical. Type of data set: biochemical. The settings on record: for inhibition at 10 µM: at 10 µM concentration, read-out: huAChE inhibition class. On the procedure:
The inhibition of human huAChE was also evaluated for five compounds.
as §2

For data set [4], the target named is T1, human MAO-A. The experiment in a line: Inhibition kinetics and time course of MAO-A inhibition. It is filed as biochemical. The text has this: For the sake of clarity, the position of the Mannich base (-CH2NR2) on the main coumarin core will be indicated as C8, whereas the positions of Cl or Br and OMe on the 4-coumarin-3-yl moiety will be indicated as C6′ and C8′.
Time courses of MAO-A inhibition by 2b and 5b, using a spectrophotometric assay measuring the absorbance of 4-
(1 picture or pasted object on this page, not shown here)

Data set [5] is described as follows: Hydrolytic stability in aqueous buffers. The settings on record: 0.01 M HCl (pH 2.0) and 0.05 M PBS (pH 7.4), 37 ± 1 °C, 1 h, 100 μM.
Experimental: Sample solutions at 100 μM (DMSO as the cosolvent, 1% v/v) were incubated at 37 ± 1 °C for 1 h, following shaking of the solution on an orbital shaker at 250 rpm and monitoring by RP-HPLC.
Where [6] appears, read: read-out: eqBChE inhibition class.
Setting [7] is: PBS (50 mM, pH 7.4, 0.15 M KCl) at 25 ± 1 °C, n = 3.
Setting [8] is: mean ± SD of three independent determinations, ~10 means 50–60% inhibition at 10 µM.

≈ marks a conversion by molar mass, not a printed value. Where “and” joins values, the source holds several entries; their conditions need not be identical. Equal entries are not always repeated. Entries after “also recorded” stand apart in the source; their conditions may differ. Where two headings read alike, the source gives them in different places.

T4 sequence (P81908 whole entry): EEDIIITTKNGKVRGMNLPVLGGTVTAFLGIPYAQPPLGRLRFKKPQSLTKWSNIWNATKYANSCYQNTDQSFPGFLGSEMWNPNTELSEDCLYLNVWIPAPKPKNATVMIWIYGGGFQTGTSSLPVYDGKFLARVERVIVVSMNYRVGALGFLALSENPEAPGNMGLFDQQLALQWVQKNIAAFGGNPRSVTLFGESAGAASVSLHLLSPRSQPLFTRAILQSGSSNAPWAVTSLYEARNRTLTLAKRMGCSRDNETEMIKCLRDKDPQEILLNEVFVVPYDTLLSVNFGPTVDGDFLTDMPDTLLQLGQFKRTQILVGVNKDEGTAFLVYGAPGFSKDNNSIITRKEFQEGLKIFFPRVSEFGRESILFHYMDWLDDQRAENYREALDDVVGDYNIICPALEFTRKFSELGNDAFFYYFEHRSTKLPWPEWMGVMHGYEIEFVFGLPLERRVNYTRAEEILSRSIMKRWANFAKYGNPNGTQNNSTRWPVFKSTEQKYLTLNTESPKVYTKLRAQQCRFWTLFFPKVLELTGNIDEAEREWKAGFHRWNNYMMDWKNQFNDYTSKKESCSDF
T3 sequence (O42275 24-633): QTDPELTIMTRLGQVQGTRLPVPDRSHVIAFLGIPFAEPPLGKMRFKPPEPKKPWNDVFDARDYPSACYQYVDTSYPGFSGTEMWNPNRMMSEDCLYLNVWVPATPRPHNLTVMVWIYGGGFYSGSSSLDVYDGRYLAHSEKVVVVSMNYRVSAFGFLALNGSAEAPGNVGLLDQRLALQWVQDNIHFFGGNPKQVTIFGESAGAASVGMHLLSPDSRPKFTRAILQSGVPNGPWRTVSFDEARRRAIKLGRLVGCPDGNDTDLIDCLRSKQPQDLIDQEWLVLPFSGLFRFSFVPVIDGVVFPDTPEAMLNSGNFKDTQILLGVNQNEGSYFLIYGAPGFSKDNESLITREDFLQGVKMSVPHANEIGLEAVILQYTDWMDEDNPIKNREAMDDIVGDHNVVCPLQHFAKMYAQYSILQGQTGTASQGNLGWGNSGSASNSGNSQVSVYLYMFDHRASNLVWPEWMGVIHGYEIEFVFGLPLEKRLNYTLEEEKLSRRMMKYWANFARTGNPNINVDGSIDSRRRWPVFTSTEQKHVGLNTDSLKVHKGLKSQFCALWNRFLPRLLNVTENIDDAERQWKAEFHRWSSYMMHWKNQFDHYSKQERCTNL
Chain of human huAChE (P22303 32-614): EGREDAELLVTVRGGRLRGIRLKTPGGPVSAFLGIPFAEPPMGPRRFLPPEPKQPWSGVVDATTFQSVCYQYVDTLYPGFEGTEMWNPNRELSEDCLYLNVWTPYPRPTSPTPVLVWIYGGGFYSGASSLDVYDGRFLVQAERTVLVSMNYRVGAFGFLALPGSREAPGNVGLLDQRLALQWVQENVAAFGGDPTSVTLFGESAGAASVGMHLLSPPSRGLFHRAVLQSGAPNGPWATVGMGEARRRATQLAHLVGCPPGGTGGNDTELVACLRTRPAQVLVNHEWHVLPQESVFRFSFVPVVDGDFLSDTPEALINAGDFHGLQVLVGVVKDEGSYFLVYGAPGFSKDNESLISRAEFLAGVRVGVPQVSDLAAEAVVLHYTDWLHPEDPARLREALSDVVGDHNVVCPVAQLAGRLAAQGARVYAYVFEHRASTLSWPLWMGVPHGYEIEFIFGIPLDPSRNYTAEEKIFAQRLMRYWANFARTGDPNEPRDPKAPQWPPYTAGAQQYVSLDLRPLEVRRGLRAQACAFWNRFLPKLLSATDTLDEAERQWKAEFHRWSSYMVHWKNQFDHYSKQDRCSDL

In general, IC50 refers to the concentration that gives 50% inhibition. A lower IC50 goes with greater potency in that assay. Usually inhibition stands for the percentage by which the read-out fell short of the control. As usually defined, the solubility is how much of the substance goes into solution per volume. Molecule `CN(C)Cc1c(O)ccc2c(-c3cc4ccccc4oc3=O)cc(=O)oc12` [Compound 2a, 8-((dimethylamino)methyl)-4-(2-oxo-2H-chromen-3-yl)-7-hydroxy-2H-chromen-2-one] returned an IC50 against human MAO-A [1] of 8.3 ± 0.36 µM. In addition, the values for the inhibition at 10 µM on human huMAO-B, at electric eel eeAChE and at horse serum eqBChE (setting [6]) were 36%, 22% and below 10%, respectively. The solubility at 2 h in data set [2] (setting [7]) was determined as 183 µM (≈ 66.5 µg/mL). Further, the “experimental solubility in PBS pH 7.4, times higher than calculated with the ESOL model” value in data set [2] was “two”. For the same molecule, the “Log k’w (polycratic capacity factor)” value in [3] was 2.11.

The Ki is the equilibrium dissociation constant of an inhibitor or competing ligand from its target. Regarding `CN(C)Cc1c(O)ccc2c(-c3cc4cc(Cl)ccc4oc3=O)cc(=O)oc12` [Compound 2b, 8-((dimethylamino)methyl)-4-(6-chloro-2-oxo-2H-chromen-3-yl)-7-hydroxy-2H-chromen-2-one], the 50% inhibitory concentration (IC50) against human MAO-A [1] is 1.49 ± 0.49 µM; against human huMAO-B, around 10 µM; against electric eel eeAChE, around 10 µM. Further, the inhibition at 10 µM at human huAChE and on horse serum eqBChE (setting [6]) was below 10% each time. For the same molecule, on human MAO-A [4] (Michaelis–Menten and Lineweaver–Burk plots), the “mode of inhibition of MAO-A” value was “competitive”. The Ki at human MAO-A [4] (human MAO-A, competitive inhibition, read-out: inhibition constant (Ki) MAO-A) turned out to be 0.272 µM. Moreover, at human MAO-A [4] (time course, absorbance of 4-hydroxyquinoline at 316 nm, inhibitor close to IC50), the “reversibility of MAO-A inhibition” value is reported as “reversible”. Also, the solubility at 2 h in data set [2] (setting [7]) worked out at 147 µM (≈ 58.5 µg/mL). Further, the “Log k’w (polycratic capacity factor)” value in data set [3] is given as 2.45.

`CN(C)Cc1c(O)ccc2c(-c3cc4cc(Br)ccc4oc3=O)cc(=O)oc12` [Compound 2c, 8-((dimethylamino)methyl)-4-(6-bromo-2-oxo-2H-chromen-3-yl)-7-hydroxy-2H-chromen-2-one]: the IC50 was 2.23 ± 0.22 µM on human MAO-A [1] and around 10 µM against human huMAO-B. Further, on human MAO-A [1] (setting [8]), the “huMAO-A IC50” value is “single-digit micromolar”. For the same molecule, the figures for the inhibition at 10 µM against electric eel eeAChE, at human huAChE and at horse serum eqBChE (setting [6]) were 20%, below 10% and below 10%, respectively. Moreover, the solubility at 2 h in [2] (setting [7]) was determined as 141 µM (≈ 62.4 µg/mL). In addition, the “experimental solubility in PBS pH 7.4, times higher than calculated with the ESOL model” value in data set [2] is recorded as “thirteen”. In addition, the “Log k’w (polycratic capacity factor)” value in [3] is on record as 2.65. Besides, the hydrolytic stability entry in data set [5] is reported as “stable over 1 h”.

For `CCN(CC)Cc1c(O)ccc2c(-c3cc4cc(Br)ccc4oc3=O)cc(=O)oc12` [Compound 3c, 8-((diethylamino)methyl)-4-(6-bromo-2-oxo-2H-chromen-3-yl)-7-hydroxy-2H-chromen-2-one], the half-inhibitory concentration (IC50) on human MAO-A [1] was 3.04 ± 1.37 µM; on electric eel eeAChE, < 10 µM and 1.56 µM; against human huAChE, 4.27 ± 0.58 µM. In addition, the “huMAO-A IC50” value on human MAO-A [1] (setting [8]) was “single-digit micromolar”. Also, the inhibition at 10 µM at human huMAO-B turned out to be 42%; on horse serum eqBChE (mean ± SD, read-out: eqBChE % inhibition) it was 37%. For the same molecule, the “Solubility Exp.” value in [2] (setting [7]) amounted to 181 µM (≈ 85.1 µg/mL). Also, the “experimental solubility in PBS pH 7.4, times higher than calculated with the ESOL model” value in [2] is “fifty; also recorded: fiftyfold”. Moreover, the “water solubility relative to 2c” value in data set [2] (at pH 7.4) worked out at 1.3 fold. Further, in [3], the “Log k’w (polycratic capacity factor)” value is recorded as 2.89.

Regarding `CCCCN(C)Cc1c(O)ccc2c(-c3cc4cc(Br)ccc4oc3=O)cc(=O)oc12` [Compound 5c], on human MAO-A [1] (setting [8]), the IC50 worked out at 2.52 ± 0.7 µM and the “huMAO-A IC50” value is on record as “single-digit micromolar”. Moreover, at human huMAO-B (setting [8]), the half-inhibitory concentration (IC50) is around 10 µM. The eqBChE % inhibition entry on horse serum eqBChE (mean ± SD) was “[25 ± 11] %”. In addition, in data set [5], the hydrolytic stability entry is on record as “stable over 1 h”.
